Experimental data from patent publication US4118482A (priority 1977, dated 1978).
Like-named read-outs stand apart in the source and are kept apart here. Numbered stars: 1 amine (or outer) side, 2 acyl side, 3 side chain; on linkers, the order of the positions; unused ones are H or OH. Bridge positions count the residues as written; N and C are the ends. Square brackets hold non-standard residues; d marks the D form. Peptide text beside a SMILES is read from it. I, II: the chains in the order shown. Actinocin(9to1) = Cc1c2oc3c(C)ccc(C(=O)[*:1])c3nc-2c(C(=O)[*:2])c(N)c1=O; NMeV = CN[CH](C(=O)O)C(C)C; Aze = O=C(O)[CH]1CCN1; Sar = CNCC(=O)O

Legend:
[1] = test system: advanced Ridgeway osteogenic sarcoma; settings: cited from earlier work
[2] = test system: Bacillus subtilis, Staphylococcus aureus and Staphylococcus albus; assay: Inhibition of bacterial growth (cross section of gram-positive and gram-negative bacteria); assay type: cell-based
P388 leukemia = P388 leukemia in mice, treatment QD at days 1-9 (National Cancer Institute screen); assay type: in vivo; settings: for 5 ILS* (increased life span) / 60 DAY "CURES" / SURVIAL TIME MEDIAN: QD days 1-9, P388 mice; for SURVIAL TIME MEDIAN: controls 10 days
Description: (§1) The National Cancer Institute conducted a screening test on samples of both Azetomicin I (3' prolyl, 3' azet) and Azetomicin II (3', 3' azet) as well as on Dactinomycin (3', 3' prolyl) that is also known as Actinomycin D or C1. The Azetomicin and Dactinomycin molecules are identical, with the exception of the 3' amino acid position on the peptides, wherein the 3' positions, in the case of Dactinomycin are both prolyl; in the case of the Azetomicin I are prolyl and azetidine-2-carboxyl; and in the cae of Azetomicin II are both azetidine-2-carboxyl.
P 388 LEUKEMIA : QD AT DAYS 1-9 TREATMENT

[3] = Storage stability in aqueous solution; assay type: physicochemical; settings: 0°-25° C, pH range of 5-8, maintained in the dark
Procedure: The major products of interest were determined to be Azetomicin I and Azetomycin II. They were stable after storage at 0°-25° C in aqueous solution in the pH range of 5-8 for at least 5 days when maintained in the dark.

ADVANCED P388 LEUKEMIA = assay: Advanced P388 leukemia in mice, treatment Q4D x 3 at days 5, 9, 13; assay type: in vivo; settings: Q4D x 3 days 5, 9, 13, advanced P388; for SURVIAL TIME MEDIAN: controls 10 days
Description: as §1
ADVANCED P388 LEUKEMIA : Q4D × 3 AT DAYS 5, 9, 13 TREATMENT

Rous sarcoma virus = assay: Development of visible tumors in chicks infected with Rous sarcoma virus, single injection; assay type: in vivo; settings: injected once; compared with untreated or saline injected controls
Procedure: In another test, both Azetomicin I and Azetomicin II, were injected once into chicks infected with Rous sarcoma virus. The development of visible tumors was decreased by over 80% as compared with untreated or saline injected controls.

[4] = Toxicity per mg compared with Actinomicin D
[5] = schedule day 12, data of Southern Research Institute

For `COc1cccc2c1C(=O)c1c(O)c3c(c(O)c1C2=O)C[C@@](O)(C(=O)CO)C[C@@H]3O[C@H]1C[C@H](N)[C@H](O)[C@H](C)O1` [ADRIAMYCIN], the “"CURES" (Number/Total)” value [1, 5] is given as 0/8, the “REGRESSION 50+%-PARTIAL (Number/Total)” value [1, 5] is given as 7/8 and the “REGRESSION COMPLETE (Number/Total)” value [1, 5] is given as 7/8.
In the case of `Nc1ccn([C@@H]2O[C@H](CO)[C@@H](O)[C@@H]2O)c(=O)n1` [ARA-C], the “"CURES" (Number/Total)” value ([1]; schedule days 12,12,20(q3h)) is given as 0/10, the “REGRESSION 50+%-PARTIAL (Number/Total)” value ([1]; schedule days 12,12,20(q3h)) is given as 7/10 and the “REGRESSION COMPLETE (Number/Total)” value ([1]; schedule days 12,12,20(q3h)) is given as 3/10.
In the case of `Nc1ncn([C@@H]2O[C@H](CO)[C@@H](O)[C@H]2O)c(=O)n1` [AZACYTIDINE], the “"CURES" (Number/Total)” value ([1]; schedule days 12,16,20,24) is listed as 0/7, the “REGRESSION 50+%-PARTIAL (Number/Total)” value ([1]; schedule days 12,16,20,24) is listed as 0/7 and the “REGRESSION COMPLETE (Number/Total)” value ([1]; schedule days 12,16,20,24) is listed as 0/7.
In the case of `Cc1c2oc3c(C)ccc(C(=O)NC4C(=O)NC(C(C)C)C(=O)N5CCC5C(=O)N(C)CC(=O)N(C)C(C(C)C)C(=O)OC4C)c3nc-2c(C(=O)NC2C(=O)NC(C(C)C)C(=O)N3CCC3C(=O)N(C)CC(=O)N(C)C(C(C)C)C(=O)OC2C)c(N)c1=O` (centres unmarked) [AZETOMICIN-II, Azetomicin II] (I: TV[Aze][Sar][NMeV] / II: TV[Aze][Sar][NMeV]; ester I:1-I:C, II:1-II:C; linker I:N-II:N via Actinocin(9to1); configuration not given here), the “activity against bacterial growth relative to Actinomicin D” value [2] is reported as 50%, the “5 ILS* (increased life span)” value (P388 leukemia; 0.05 Mg/Kg/Inj.) is reported as 125% and the “60 DAY "CURES"” value (P388 leukemia; 0.05 Mg/Kg/Inj.) is reported as 0%. The “SURVIAL TIME MEDIAN” value (P388 leukemia; 0.05 Mg/Kg/Inj.) was 22.5 days, the “5 ILS* (increased life span)” value (P388 leukemia; 0.1 Mg/Kg/Inj.) was 130% and the “60 DAY "CURES"” value (P388 leukemia; 0.1 Mg/Kg/Inj.) was 12%. The “SURVIAL TIME MEDIAN” value (P388 leukemia; 0.1 Mg/Kg/Inj.) was 23 days, the “activity compared with Dactinomycin (summary of Table I)” value (P388 leukemia; P388 leukemia mice, Table I) was “roughly comparable in activity to Dactinomycin” and the “time stable after storage in aqueous solution” value [3] was “at least 5 days”. The “5 ILS* (increased life span)” value (ADVANCED P388 LEUKEMIA; 0.6 Mg/Kg/Inj.) was 150%, the “60 DAY "CURES"” value (ADVANCED P388 LEUKEMIA; 0.6 Mg/Kg/Inj.) was 0 and the “SURVIAL TIME MEDIAN” value (ADVANCED P388 LEUKEMIA; 0.6 Mg/Kg/Inj.) was 25 days. The “decrease of development of visible tumors” value (Rous sarcoma virus) was “over 80%” and the “toxicity/mg. compared with Actinomicin D” value [4] was “substantially less toxic/mg”.
For `O=NN(CCCl)C(=O)NCCCl` [BCNU], the “"CURES" (Number/Total)” value [1, 5] is given as 0/8, the “REGRESSION 50+%-PARTIAL (Number/Total)” value [1, 5] is given as 0/8 and the “REGRESSION COMPLETE (Number/Total)” value [1, 5] is given as 0/8.
In the case of `O=NN(CCCl)C(=O)NC1CCCCC1` [CCNU], the “"CURES" (Number/Total)” value [1, 5] is listed as 0/8, the “REGRESSION 50+%-PARTIAL (Number/Total)” value [1, 5] is listed as 0/8 and the “REGRESSION COMPLETE (Number/Total)” value [1, 5] is listed as 0/8.
For `O=C(O)CCCc1ccc(N(CCCl)CCCl)cc1` [CHLORAMBUCIL], the “"CURES" (Number/Total)” value [1, 5] is given as 0/10, the “REGRESSION 50+%-PARTIAL (Number/Total)” value [1, 5] is given as 0/10 and the “REGRESSION COMPLETE (Number/Total)” value [1, 5] is given as 0/10.
For `O=P1(N(CCCl)CCCl)NCCCO1` (centres unmarked) [CYCLOPHOSPHAMIDE], the “"CURES" (Number/Total)” value [1, 5] is given as 3/8, the “REGRESSION 50+%-PARTIAL (Number/Total)” value [1, 5] is given as 8/8 and the “[…] (Number/Total)” value [1, 5] is given as 8/8.
For `Cc1c2oc3c(C)ccc(C(=O)N[C@@H]4C(=O)N[C@H](C(C)C)C(=O)N5CCC[C@H]5C(=O)N(C)CC(=O)N(C)[C@@H](C(C)C)C(=O)O[C@@H]4C)c3nc-2c(C(=O)N[C@@H]2C(=O)N[C@H](C(C)C)C(=O)N3CCC[C@H]3C(=O)N(C)CC(=O)N(C)[C@@H](C(C)C)C(=O)O[C@@H]2C)c(N)c1=O` [DACTINOMYCIN, Dactinomycin] (I: T[dV]P[Sar][NMeV] / II: T[dV]P[Sar][NMeV]; ester I:1-I:C, II:1-II:C; linker I:N-II:N via Actinocin(9to1)), the “5 ILS* (increased life span)” value (P388 leukemia; 0.05 Mg/Kg/Inj.) was 180%, the “60 DAY "CURES"” value (P388 leukemia; 0.05 Mg/Kg/Inj.) was 0% and the “SURVIAL TIME MEDIAN” value (P388 leukemia; 0.05 Mg/Kg/Inj.) was 28 days. For the same molecule, the “5 ILS* (increased life span)” value (P388 leukemia; 0.1 Mg/Kg/Inj.) was 115%, the “60 DAY "CURES"” value (P388 leukemia; 0.1 Mg/Kg/Inj.) was 12% and the “SURVIAL TIME MEDIAN” value (P388 leukemia; 0.1 Mg/Kg/Inj.) was 21.5 days. The “5 ILS* (increased life span)” value (ADVANCED P388 LEUKEMIA; 0.15 Mg/Kg/Inj.) was 95%, the “60 DAY "CURES"” value (ADVANCED P388 LEUKEMIA; 0.15 Mg/Kg/Inj.) was 0 and the “SURVIAL TIME MEDIAN” value (ADVANCED P388 LEUKEMIA; 0.15 Mg/Kg/Inj.) was 19.5 days.
For `COc1cccc2c1C(=O)c1c(O)c3c(c(O)c1C2=O)C[C@@](O)(C(C)=O)C[C@@H]3O[C@H]1C[C@H](N)[C@H](O)[C@H](C)O1` [DAUNOMYCIN], the “"CURES" (Number/Total)” value ([1]; schedule days 12-17) is given as 0/12, the “REGRESSION 50+%-PARTIAL (Number/Total)” value ([1]; schedule days 12-17) is given as 9/12 and the “REGRESSION COMPLETE (Number/Total)” value ([1]; schedule days 12-17) is given as 3/12.
For `CN(C)/N=N/c1[nH]cnc1C(N)=O` [DTIC], the “"CURES" (Number/Total)” value [1, 5] is given as 0/10, the “REGRESSION 50+%-PARTIAL (Number/Total)” value [1, 5] is given as 0/10 and the “REGRESSION COMPLETE (Number/Total)” value [1, 5] is given as 0/10.
